Each molecule was assayed against Egl nine homolog 1 (Homo sapiens, UniProt Q9GZT9) (assay: Inhibition Assay: The IC50 values for the PHD2 enzyme (residues 181-417) were determined by mixing increasing amounts of inhibitor with a fixed amount of enzyme (5 nM, final concentration) and Biotin labeled peptide (Biotin-Asp-Leu-Glu-Met-Leu-Ala-Pro-Tyr-Ile-Pro-Met-Asp-Asp-Asp-Phe-Gln-Leu, 1 uM final concentration) and 2-Oxyglutarate (2 uM final concentration) in 50 mM HEPES, 50 mM KCl, 0.5 mM TCEP, 2 uM FeCl2, 0.1 mg/ml BSA, at pH 7.3. The reaction was conducted by pre-incubating the enzyme in the presence of inhibitor for 60 min at room temperature. The activity of the free enzyme was measured by adding the peptide, the 2-Oxoglutarate (see above for final concentrations), and Ascorbic Acid (1 mM final concentration). The enzymatic activity was quenched after 60 min by adding an excess of a tight binding inhibitor to the assay mixture. The amount of product released was measured by using a LC/MS system (Agilent HPLC with Applied Biosystems API3000 Mass Spectrometer).).
Sequence of Egl nine homolog 1 (Q9GZT9 whole entry, the tested form may be a part): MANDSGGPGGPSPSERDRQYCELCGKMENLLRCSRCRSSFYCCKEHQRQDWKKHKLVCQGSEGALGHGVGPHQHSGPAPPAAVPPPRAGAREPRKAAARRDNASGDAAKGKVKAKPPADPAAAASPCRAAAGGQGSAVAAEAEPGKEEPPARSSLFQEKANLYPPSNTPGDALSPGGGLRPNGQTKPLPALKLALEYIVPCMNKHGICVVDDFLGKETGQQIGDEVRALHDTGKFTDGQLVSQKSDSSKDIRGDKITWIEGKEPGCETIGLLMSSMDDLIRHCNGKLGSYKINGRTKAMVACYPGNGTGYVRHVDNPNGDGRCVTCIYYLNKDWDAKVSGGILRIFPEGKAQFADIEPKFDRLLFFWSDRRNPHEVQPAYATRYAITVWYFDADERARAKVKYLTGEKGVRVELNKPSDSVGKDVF
Molecule `COc1cc(C#N)ccc1-c1cnn(-c2ccc(C(=O)NCCC3CCCO3)cn2)c1O` (stereo unspecified) has an IC50 of 66.1 nM.
Molecule `COCCNC(=O)c1cnc(-n2ncc(-c3ccc(C#N)cc3)c2O)cc1C` has an IC50 of 97.7 nM.
Work on `CCN1CCC(NC(=O)c2ccc(-n3ncc(-c4ccnc(OC)c4)c3O)nc2)CC1` yielded an IC50 of 77.6 nM.
`COc1cc(-c2cnn(-c3ccc(C(=O)NCCCN4CCCC4)cn3)c2O)ccn1` was tested, and the IC50 was 97.7 nM.
In the case of `COc1cc(-c2cnn(-c3ccc(C(=O)NCCC4CCCN4C)cn3)c2O)ccn1` (stereo unspecified), the IC50 is reported as 126 nM.
`CC(C)(C)NC(=O)c1ccc(-n2ncc(-c3cccnc3)c2O)nc1` showed an IC50 of 10 nM.
Molecule `CN1CCC(NC(=O)c2ccc(-n3ncc(-c4ccc(C#N)cc4)c3O)nc2)CC1=O` (stereo unspecified) has an IC50 of 129 nM.
`COc1cc(-c2cnn(-c3ccc(C(=O)NCCCN4CCCCC4)cn3)c2O)ccn1` gave an IC50 of 87.1 nM.
For `COc1cc(-c2cnn(-c3ccc(C(=O)NCCCn4ccnc4)cn3)c2O)ccn1`, the IC50 was 37.2 nM.
With `CCN1CCC(CN(C)C(=O)c2ccc(-n3ncc(-c4ccc(C#N)cc4)c3O)nc2)C1` (stereo unspecified) the IC50 was 56.2 nM.
In the case of `COc1cc(-c2cnn(-c3ccc(C(=O)NCCCN4CCCC4=O)cn3)c2O)ccn1`, the IC50 is reported as 51.3 nM.

Reference: ChEMBL document CHEMBL5727290, “6-(5-hydroxy-1H-pyrazol-1-yl)nicotinamide inhibitors of PHD” (2019)
